Data published in patent publication US5212165A, “Method for rehabilitating the vasorelaxant action of the coronary arteries impaired through atherosclerosis or hypercholesterolemia employing an ACE inhibitor” (E. R. Squibb & Sons, Inc., priority 1989, dated 1993).
Entries after “also recorded” stand apart in the source; their conditions may differ.

Legend:
[1] = system: K^+ depolarized arteries (iliac rings); experiment: Contractile responses to CaCl2 in K^+ depolarized iliac rings from cynomolgus monkeys; set-up: species or system cynomolgus (Macaca fascicularis) monkeys
Text: (§1) Twenty-four male cynomolgus (Macaca fascicularis) monkeys were divided into four groups of six animals each. During the course of the study, one of the control monkeys was sacrificed due to ill health unrelated to the study. Each group was fed a different diet for six months. The control group ate a normal diet of monkey biscuit. The cholesterol group ate a specially formulated monkey diet containing cholesterol. The cholesterol +low captopril group ate the cholesterol diet supplemented with captopril (50 mg/kg divided into two daily doses). The cholesterol+high captopril group ate the cholesterol diet and a higher total dose of captopril (100 mg/kg divided into two daily doses).
(§2) The monkeys were sedated with an intramuscular injection of ketamine (10 mg/kg), then anesthetized with pentobarbital (25 mg/kg). The iliac arteries were carefully dissected, cleaned of surrounding connective tissue, and refrigerated overnight for use the following day.
(§3) On the day of the experiment, three iliac rings (3 mm wide) from each animal were cut and mounted for isometric force recording. Each ring was attached to a micrometer for the control of muscle length and to a Grass FT.03 force transducer and Grass 7D recorder. The rings were placed in warm (37° C.), oxygenated, physiological salt solution (PSS) of the following composition (in mM): 140.0 NaCl, 4.7 KCl, 1.2 MgSO4, 1.6 CaCl2, 1.2 NaH2 PO4, 5.6 D-glucose, 2.0 2-(N-morpholino)propanesulfonic acid (MOPS, pH 7.4 at 37° C.), and 0.02 Na2 -ethylenediaminetetraacetic acid (EDTA). The rings were stretched to a preload of 5 g during a 2 hour equilibration period, then stimulated with 1 μM phenylephrine to test for viability and relaxed with 100 nM acetylcholine to test for endothelial function. Stock solutions of phenylphrine, acetylcholine, propranolol, and sodium nitroprusside were prepared daily in water; nifedipine stock solutions were prepared daily in ethanol.
The voltage-dependent calcium channels were studied in one ring from each monkey. The protocol consisted of depleting the cells of calcium by exposing the rings to a Ca-free, EGTA (ethylene glycol-bis(β-aminoethyl ether)N,N,N',N'-tetraacetic acid) PSS (omission of CaCl2 and addition of 0.1 mM EGTA) for 30 minutes. The EGTA was subsequently removed from the tissues with three washes of Ca-free PSS (simple omission of CaCl2). Following that, the rings were bathed in Ca-free, K^+ PSS (omission of CaCl2 and isoosmotic substitution of KCl for NaCl such that the KCl concentration was 110 mM) for 30 minutes. A CaCl2 concentration-response curve was obtained by replacing the bath solution with K^+ PSS containing incremental increases in CaCl2 concentration (0.1, 0.3, 0.5, 1.0, 1.25, 1.6, and 2.5 mM). The maximal contractions, in response to 2.5 mM CaCl2, were then relaxed incrementally with nifedipine. Another iliac ring (fade control) from each monkey was subjected to the same protocol with the exception that the strips were allowed to remain contracted and the nifedipine concentration-response curve was not obtained. Some fade of the CaCl2 -induced force was observed over the time period required for the nifedipine concentration-response curve. This fade was accounted for by decreasing the amount of relaxation observed upon addition of nifedipine by the amount of fade observed in the time control from the same monkey.
(§4) Data are presented as mean±SEM. The IC50 and EC50 values were estimated by linearly interpolating from the concentration-response curves. The EC50 values for each ring were used to determine the means for each treatment group.
Concentration-response curves to CaCl2 in K^+ depolarized rings were obtained following depletion of tissue calcium by repeated washing in Ca-free PSS first with, then without, EGTA. There were no differences in the responses to CaCl2 among any of the treatment groups (Table 1).

[2] = system: alpha-adrenoceptor (isolated iliac arteries); experiment: Contractile responses to phenylephrine of isolated iliac arteries from cynomolgus monkeys; set-up: species or system cynomolgus (Macaca fascicularis) monkeys
Text: as §1, §2, §3
(§5) Alpha-adrenoceptor and endothelial cell function were examined in the third ring from each monkey. In the presence of 0.1 μM propranolol, a cumulative concentration-response curve to phenylephrine was obtained, then the phenylephrine was washed out of the baths and the rings were allowed to relax completely. The rings were subsequently contracted with an EC50 concentration of phenylephrine (1 μM) and, following stabilization of the contraction, the rings were treated with increasing concentrations of acetylcholine, followed by 100 nM sodium nitroprusside.
as §4
Phenylephrine concentration-response curves were obtained in iliac rings from all groups of monkeys.

[3] = system: phenylephrine-contracted isolated iliac arteries; experiment: Acetylcholine-induced relaxation of phenylephrine-contracted isolated iliac arteries from cynomolgus monkeys; set-up: species or system cynomolgus (Macaca fascicularis) monkeys; settings: for maximum force generated in response to phenylephrine (before acetylcholine): mean±SEM
Text: as §1, §2, §3, §5, §4
For each monkey, the EC50 for acetylcholine relaxation was calculated by linearly interpolating from the concentration-response curves. When 50% relaxation was not achieved, the value of the EC50 was set to 30 μM a value larger than any of the experimental concentrations of acetylcholine).
Linear contrast of mean ranks in the groups were constructed with a variance estimate for the contrast based on the Kruskal-Wallis statistic (Dunn 1964).
In the analyses, the following coefficients were employed: i) for an overall test, the coefficients were 3 for the cholesterol group, 1 for the control group, -1 for the cholesterol+low captopril group, and -3 for the cholesterol+high captopril group, based on prior expectations of likely results; ii) for a test of the cholesterol effect, the coefficients were 1 for the cholesterol group, -1 for the control group, 0 for the cholestrol+low captopril group, and 0 for the cholesterol+high captopril group; iii) for a test of the captopril effect, the coefficients were 0 for the cholesterol group, 1 for the […], 0 for the cholesterol+low captopril group, and -1 for the cholesterol+high captopril group.
All statistical results reported are based on one-sided tests. […]

[4] = system: isolated rat hearts; settings: van Gilst et al; cited from earlier work
[5] = system: vascular relaxation in response to EN-D (ACh) and EN-I (Na nitroprusside) agonists; settings: oral; rats; cited from earlier work
[6] = system: guinea pig or rat lungs; settings: guinea pig lungs; cited from earlier work
[7] = system: patients with Raynaud's phenomenon; settings: cited from earlier work
[8] = Cholesterol + High Captopril (100 mg/kg daily, six months), Mean ± SEM
[9] = Cholesterol + Low Captopril (50 mg/kg daily, six months), Mean ± SEM
[10] = cholesterol-fed monkeys, with captopril

Structure (SMILES): C[C@H](CS)C(=O)N1CCC[C@H]1C(=O)O [captopril, 1-[(2S)-3-mercapto-2-methylpropionyl]-L-proline]
- Max Force (CaCl2) [1, 8]: 16.8 ± 1.1 g
- Max Force (CaCl2) [1, 9]: 16.5 ± 1.8 g
- EC50 at 100 mg/kg ([1]; Macaca fascicularis, Cholesterol + High Captopril (100 mg/kg daily, six months), Mean ± SEM): 150 ± 30 µM
- EC50 at 50 mg/kg ([1]; Macaca fascicularis, Cholesterol + Low Captopril (50 mg/kg daily, six months), Mean ± SEM): 140 ± 40 µM
- effect on in vitro response of iliac arteries to CaCl2 [1, 10]: neither cholesterol nor captopril affected
- Max Force (phenylephrine-induced contraction) [2, 8]: 19.2 ± 2.2 g
- Max Force (phenylephrine-induced contraction) [2, 9]: 18.4 ± 2.8 g
- EC50 at 100 mg/kg ([2]; Macaca fascicularis, Cholesterol + High Captopril (100 mg/kg daily, six months), Mean ± SEM, read-out: EC50 (phenylephrine-induced contraction)): 1300 ± 600 nM
- EC50 at 50 mg/kg ([2]; Macaca fascicularis, Cholesterol + Low Captopril (50 mg/kg daily, six months), Mean ± SEM, read-out: EC50 (phenylephrine-induced contraction)): 1000 ± 200 nM
- effect on in vitro response of iliac arteries to phenylephrine [2, 10]: neither cholesterol nor captopril affected
- EC50 at 100 mg/kg ([3]; Macaca fascicularis, Cholesterol + High Captopril (100 mg/kg daily, six months), N 5, non-responder excluded, Mean ± SEM): 100 ± 10 nM
- endothelium-dependent vasorelaxant effects ([3]; arteries from hypercholesterolemic and atherosclerotic monkeys): enhance endothelium-dependent vasorelaxant effects
- shift of EC50 concentration for acetylcholine ([3]; captopril as compared with cholesterol alone): statistically significant effect of captopril as compared with cholesterol; also recorded: significantly shifted the EC50 concentration for acetylcholine to the left
- rings not showing 50% relaxation in response to acetylcholine ([3]; cholesterol diet and low dose captopril): One ring did not show 50% relaxation
- iliac rings responsive to acetylcholine ([3]; cholesterol fed, high daily dose of captopril, six animals): Five of the iliac rings
- maximum force generated in response to phenylephrine (before acetylcholine) ([3]; cholesterol+high captopril group, non-responders excluded): 11.9 ± 2.1 g
- maximum force generated in response to phenylephrine (before acetylcholine) ([3]; cholesterol+low captopril group): 12.4 ± 2.2 g
- potency and efficacy of acetylcholine in iliac rings from cholesterol-fed monkeys which received captopril ([3]; vs cholesterol diet without captopril): significantly more potent and efficacious
- coronary vasodilatory mechanism [4]: potentiates the effect of locally increased BK
- vascular relaxations in response to EN-D (ACh) and EN-I (Na nitroprusside) agonists [5]: differentially affected vascular relaxations
- effect on removal of endothelin by guinea pig lungs [6]: without being affected by captopril
- marked subjective improvement ([7]; 20 patients with primary or secondary Raynaud's phenomenon, Trubestein et al): 14 cases
- incidence or severity of peripheral vasospasm ([7]; Raynaud's with hypertension secondary to scleroderma, Coffman): does not decrease the incidence or severity of peripheral vasospasm
- digital circulation ([7]; one patient, Miyazaki et al): improved a patient's digital circulation
- benefit in Raynaud's phenomenon and chronic leg ulceration ([7]; one patient, Rustin et al 1989): no benefit
- cutaneous blood flow ([7]; p.o., 15 patients, placebo-controlled, double-blind cross-over, Rustin et al 1987): significantly improved cutaneous blood flow
- frequency or severity of attacks ([7]; p.o., 15 patients, Rustin et al 1987): no effect on frequency or severity of attacks
- frequency and severity of ischemic attacks ([7]; patients with Raynaud's disease, Tosi et al): significantly decreased the frequency and the severity of ischemic attacks
- ischemic attacks in patients with scleroderma ([7]; patients with scleroderma, Tosi et al): did not affect the attacks
